Assay results: the supplement of paper PMC10627819

Experiments:
Test in all cases: Bliss interaction score (quartile over a dose matrix) (fitness difference); higher = more antagonism (negative = synergy)
S. aureus DSM 20231 = system: S. aureus DSM 20231
Summary of the method: (§1)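 Fitness here means normalised growth, inferred for single drugs from the combination data. Growth was OD595 at entry into stationary phase, divided by the plate's robust no-drug mean and capped at 1. The Bliss score is observed minus expected fitness, with the expectation being the product, and its quartiles span technical, biological and donor/recipient replicates.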

S. aureus Newman = system: S. aureus Newman
Summary of the method: as §1

S. pneumoniae D39V = system: S. pneumoniae D39V
Summary of the method: as §1

B. subtilis 168 = system: B. subtilis 168
Summary of the method: as §1
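Also: first quartile when negative (synergy) and third quartile when positive (antagonism).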

Work on N[C@@H]1CONC1=O [CycloserineD] + CC[C@H]1OC(=O)[C@H](C)C(=O)[C@H](C)[C@@H](O[C@@H]2O[C@H](C)C[C@H](N(C)C)[C@H]2O)[C@](C)(OC)C[C@@H](C)C(=O)[C@H](C)[C@H]2N(CCCCn3cnc(-c4cccnc4)c3)C(=O)O[C@]12C [Telithromycin] yielded a Bliss interaction score (S. aureus DSM 20231) of 0.116, a Bliss interaction score (S. aureus Newman) of 0.0514 and a Bliss interaction score (S. pneumoniae D39V) of 0.0906. For the same compound, the Bliss interaction score (B. subtilis 168) was 0.0974.
Compound O=C1CN(/N=C/c2ccc([N+](=O)[O-])o2)C(=O)N1 [Nitrofurantoin] + CC[C@H]1OC(=O)[C@H](C)C(=O)[C@H](C)[C@@H](O[C@@H]2O[C@H](C)C[C@H](N(C)C)[C@H]2O)[C@](C)(OC)C[C@@H](C)C(=O)[C@H](C)[C@H]2N(CCCCn3cnc(-c4cccnc4)c3)C(=O)O[C@]12C [Telithromycin] has a Bliss interaction score (S. aureus DSM 20231) of -0.0398, a Bliss interaction score (S. aureus Newman) of -0.0641 and a Bliss interaction score (S. pneumoniae D39V) of -0.293. It also gave a Bliss interaction score (B. subtilis 168) of -0.128.
In the case of CC[C@H]1OC(=O)[C@H](C)[C@@H](O[C@H]2C[C@@](C)(OC)[C@@H](O)[C@H](C)O2)[C@H](C)[C@@H](O[C@@H]2O[C@H](C)C[C@H](N(C)C)[C@H]2O)[C@](C)(OC)C[C@@H](C)C(=O)[C@H](C)[C@@H](O)[C@]1(C)O [Clarithromycin] + CC[C@H]1OC(=O)[C@H](C)[C@@H](O[C@H]2C[C@@](C)(OC)[C@@H](O)[C@H](C)O2)[C@H](C)[C@@H](O[C@@H]2O[C@H](C)C[C@H](N(C)C)[C@H]2O)[C@](C)(O)C[C@@H](C)C(=O)[C@H](C)[C@@H](O)[C@]1(C)O [Erythromycin], the Bliss interaction score (S. aureus DSM 20231) is reported as 0.0159, the Bliss interaction score (S. aureus Newman) is reported as -0.0296 and the Bliss interaction score (S. pneumoniae D39V) is reported as 0.0551. It also gave a Bliss interaction score (B. subtilis 168) of -0.0372.
With CC(=O)O[C@H]1C[C@@]2(C)[C@@H](C[C@@H](O)[C@H]3[C@@]4(C)CC[C@@H](O)[C@@H](C)[C@@H]4CC[C@@]32C)/C1=C(\CCC=C(C)C)C(=O)O [Fusidic acid] + COc1ccc(C[C@H](N)C(=O)N[C@H]2[C@@H](O)[C@H](n3cnc4c(N(C)C)ncnc43)O[C@@H]2CO)cc1 [Puromycin] the Bliss interaction score (S. aureus DSM 20231) was 0.0336, the Bliss interaction score (S. aureus Newman) was -0.0454 and the Bliss interaction score (S. pneumoniae D39V) was -0.213. It also gave a Bliss interaction score (B. subtilis 168) of -0.045.
O=C(O[C@@H]1Cc2c(O)cc(O)cc2O[C@@H]1c1cc(O)c(O)c(O)c1)c1cc(O)c(O)c(O)c1 [EGCG] + CC(=O)O[C@H]1C[C@@]2(C)[C@@H](C[C@@H](O)[C@H]3[C@@]4(C)CC[C@@H](O)[C@@H](C)[C@@H]4CC[C@@]32C)/C1=C(\CCC=C(C)C)C(=O)O [Fusidic acid] gave a Bliss interaction score (S. aureus DSM 20231) of -0.019, a Bliss interaction score (S. aureus Newman) of -0.0283 and a Bliss interaction score (S. pneumoniae D39V) of -0.143. For the same compound, the Bliss interaction score (B. subtilis 168) was 0.0767.
Work on O=C1CN(/N=C/c2ccc([N+](=O)[O-])o2)C(=O)N1 [Nitrofurantoin] + CCCCCCCCCC(=O)N[C@@H]1[C@H]([C@@H]([C@H](O[C@H]1OC2=C3C=C4C=C2OC5=C(C=C(C=C5)[C@H]([C@H]6C(=O)N[C@@H](C7=C(C(=CC(=C7)O)OC8[C@H]([C@H]([C@@H]([C@H](O8)CO)O)O)O)C9=C(C=CC(=C9)[C@H](C(=O)N6)NC(=O)[C@@H]4NC(=O)[C@@H]1C2=CC(=CC(=C2)OC2=C(C=CC(=C2)[C@H](C(=O)N[C@H](CC2=CC(=C(O3)C=C2)Cl)C(=O)N1)N)O)O)O)C(=O)O)O[C@H]1[C@@H]([C@H]([C@@H]([C@H](O1)CO)O)O)NC(=O)C)Cl)CO)O)O [Teicoplanin] yielded a Bliss interaction score (S. aureus DSM 20231; main component drawn) of 0.0402, a Bliss interaction score (S. aureus Newman; main component drawn) of -0.0914 and a Bliss interaction score (S. pneumoniae D39V; main component drawn) of -0.06. It also gave a Bliss interaction score (B. subtilis 168; main component drawn) of -0.157.
CC(=O)OC[C@H]1O[C@@H]([S-])[C@H](OC(C)=O)[C@@H](OC(C)=O)[C@@H]1OC(C)=O.CCP(CC)CC.[Au+] [Auranofin] + CO/N=C(\C(=O)N[C@@H]1C(=O)N2C(C(=O)O)=C(COC(C)=O)CS[C@H]12)c1csc(N)n1 [Cefotaxime] was tested, and the Bliss interaction score (S. aureus DSM 20231) was 0.0539, the Bliss interaction score (S. aureus Newman) was 0.0713 and the Bliss interaction score (S. pneumoniae D39V) was 0.0687. The Bliss interaction score (B. subtilis 168) was -0.0473.
CCC[C@@H]1C[C@@H](C(=O)N[C@@H]([C@H]2O[C@H](SC)[C@H](O)[C@@H](O)[C@H]2O)[C@H](C)Cl)N(C)C1 [Clindamycin] + CC(=O)O[C@H]1C[C@@]2(C)[C@@H](C[C@@H](O)[C@H]3[C@@]4(C)CC[C@@H](O)[C@@H](C)[C@@H]4CC[C@@]32C)/C1=C(\CCC=C(C)C)C(=O)O [Fusidic acid] gave a Bliss interaction score (S. aureus DSM 20231) of 0.0254, a Bliss interaction score (S. aureus Newman) of 0.0307 and a Bliss interaction score (S. pneumoniae D39V) of 0.0662. It also gave a Bliss interaction score (B. subtilis 168) of 0.0418.
Work on CC(=O)OC[C@H]1O[C@@H]([S-])[C@H](OC(C)=O)[C@@H](OC(C)=O)[C@@H]1OC(C)=O.CCP(CC)CC.[Au+] [Auranofin] + Cn1nnc(-c2ccc(-c3ccc(N4C[C@H](CO)OC4=O)cc3F)cn2)n1 [Tedizolid] yielded a Bliss interaction score (S. aureus DSM 20231) of -0.0334, a Bliss interaction score (S. aureus Newman) of -0.108 and a Bliss interaction score (S. pneumoniae D39V) of 0.0602. It also gave a Bliss interaction score (B. subtilis 168) of -0.0317.
Compound O=C(N[C@H](CO)[C@H](O)c1ccc([N+](=O)[O-])cc1)C(Cl)Cl [Chloramphenicol] + CN(C)[C@@H]1C(O)=C(C(N)=O)C(=O)[C@@]2(O)C(O)=C3C(=O)c4c(O)ccc(Cl)c4[C@@](C)(O)[C@H]3C[C@@H]12 [Clortetracycline] has a Bliss interaction score (S. aureus DSM 20231) of 0.0518, a Bliss interaction score (S. aureus Newman) of -0.0412 and a Bliss interaction score (S. pneumoniae D39V) of -0.0404. The Bliss interaction score (B. subtilis 168) was -0.117.
CC(=O)OC[C@H]1O[C@@H]([S-])[C@H](OC(C)=O)[C@@H](OC(C)=O)[C@@H]1OC(C)=O.CCP(CC)CC.[Au+] [Auranofin] + CC[C@H](C)[C@H](N)C1=N[C@H](C(=O)N[C@@H](CC(C)C)C(=O)N[C@H](CCC(=O)O)C(=O)N[C@H](C(=O)N[C@H]2CCCCNC(=O)[C@H](CC(N)=O)NC(=O)[C@@H](CC(=O)O)NC(=O)[C@H](Cc3cnc[nH]3)NC(=O)[C@@H](Cc3ccccc3)NC(=O)[C@H]([C@@H](C)CC)NC(=O)[C@@H](CCCN)NC2=O)[C@@H](C)CC)CS1 [Bacitracin] showed a Bliss interaction score (S. aureus DSM 20231; main component drawn) of 0.0174, a Bliss interaction score (S. aureus Newman; main component drawn) of 0.133 and a Bliss interaction score (S. pneumoniae D39V; main component drawn) of -0.0398. The Bliss interaction score (B. subtilis 168; main component drawn) was 0.165.
O=C(N[C@H](CO)[C@H](O)c1ccc([N+](=O)[O-])cc1)C(Cl)Cl [Chloramphenicol] + CO[C@@H]1[C@@H](OC(N)=O)[C@@H](O)[C@H](Oc2ccc3c(O)c(NC(=O)c4ccc(O)c(CC=C(C)C)c4)c(=O)oc3c2C)OC1(C)C [Novobiocin] gave a Bliss interaction score (S. aureus DSM 20231) of 0.0712, a Bliss interaction score (S. aureus Newman) of 0.0758 and a Bliss interaction score (S. pneumoniae D39V) of -0.111. It also gave a Bliss interaction score (B. subtilis 168) of 0.0928.
CC(=O)OC[C@H]1O[C@@H]([S-])[C@H](OC(C)=O)[C@@H](OC(C)=O)[C@@H]1OC(C)=O.CCP(CC)CC.[Au+] [Auranofin] + C1=CC(=CC(=C1)Cl)NN=C(C#N)C#N [CCCP] showed a Bliss interaction score (S. aureus DSM 20231) of 0.0194, a Bliss interaction score (S. aureus Newman) of 0.0798 and a Bliss interaction score (S. pneumoniae D39V) of 0.0425. For the same compound, the Bliss interaction score (B. subtilis 168) was 0.0372.
In the case of CC(=O)OC[C@H]1O[C@@H]([S-])[C@H](OC(C)=O)[C@@H](OC(C)=O)[C@@H]1OC(C)=O.CCP(CC)CC.[Au+] [Auranofin] + C[C@H]1COc2c(N3CCN(C)CC3)c(F)cc3c(=O)c(C(=O)O)cn1c23 [Levofloxacin], the Bliss interaction score (S. aureus DSM 20231) is reported as 0.0688, the Bliss interaction score (S. aureus Newman) is reported as 0.0684 and the Bliss interaction score (S. pneumoniae D39V) is reported as -0.0939. It also gave a Bliss interaction score (B. subtilis 168) of 0.044.
